A short description of data set [1]: Solubility in 50% ethanol (footnote to Table IV). Format: physicochemical.
Data set [2] concerns terminal portion of the guinea pig ileum. Kind of data set: Antagonistic activity against substance P on the terminal portion of the guinea pig ileum. Conditions: analog at 10^-4 (concentration unit not given). It counts as cell-based. Here is the method: The antagonistic activities of the analogs were evaluated using the terminal portion of the guinea pig ileum, as described by Yamaguchi et al. [Acta Chem. Scand. B33, 63 (1979)]. The biological assay data are in Table IV.
The sequence of substance P (SP) is expressed in the top of Table IV. The antagonistic activity is defined as the fold-increase in the concentration of SP in the presence of the analog to give 50% of the maximal response which is elicited by SP alone. The sequences of the analogs which were designed and synthesized are in Table IV. The eleven amino acids of SP are spaced across the top line to facilitate visual comparison of the amino acids in SP with those in the analogs. For example, analog I is also spaced across the page to show the sequence relationship to SP. On this basis, analog I is H-Arg^1,Pro^2,Lys^3,Pro^4,D-Phe^5,Gln^6,D-Trp^7,Phe^8 D-Trp^9,Leu^10,Leu^11 -NH2, but on the basis of conventional peptide nomenclature, analog I is expressed as [D-Phe^5,D-Trp^7,D-Trp^9,Leu^11 ]-SP5-11.

For data set [3] the following is noted: SP = 1; cited from earlier work.

Where “and” joins values, the source holds several entries; their conditions need not be identical. Equal values may be shown once. Non-standard residues stand in square brackets, D forms with d. Residues, ends and D or L forms follow the SMILES beside them. pGlu = O=C1CC[C@@H](C(=O)O)N1

Take “[D-Phe^5,D-Trp^7,D-Trp^9,Leu^11 ]-SP5-11 [Analog I]”: the Solubility entry in data set [1] was “difficulty soluble in 50% ethanol”. Besides, the “Fold increase in conc. of SP in the presence of the analog to give 50% of the maximal response elicited by SP alone” value in data set [2] is > 200 fold and 200 fold.
As for “Glp-Gln-Phe-Phe-Gly-Leu-Met-NH2 ([pGlu]QFFGLM-NH2; SMILES CSCC[C@H](NC(=O)[C@H](CC(C)C)NC(=O)CNC(=O)[C@H](Cc1ccccc1)NC(=O)[C@H](Cc1ccccc1)NC(=O)[C@H](CCC(N)=O)NC(=O)[C@@H]1CCC(=O)N1)C(N)=O) [truncated heptapeptide analog of SP from Yanaihara et al]”, the “Relative activity in comparison with SP as 1” value in data set [3] is recorded as 1.7.
For `CC(C)C[C@H](NC(=O)[C@H](CC(C)C)NC(=O)[C@@H](Cc1c[nH]c2ccccc12)NC(=O)[C@H](Cc1ccccc1)NC(=O)[C@@H](Cc1c[nH]c2ccccc12)NC(=O)[C@H](CCC(N)=O)NC(=O)[C@@H]1CCC(=O)N1)C(N)=O` [Analog V, [Glp^5,D-Trp^7,D-Trp^9,Leu^11]--SP5-11] ([pGlu]Q[dW]F[dW]LL-NH2), the “Fold increase in conc. of SP in the presence of the analog to give 50% of the maximal response elicited by SP alone” value in data set [2] came out at 17 fold.
Take `CC(C)C[C@H](NC(=O)[C@@H](Cc1c[nH]c2ccccc12)NC(=O)[C@H](Cc1ccccc1)NC(=O)[C@@H](Cc1c[nH]c2ccccc12)NC(=O)[C@H](CCC(N)=O)NC(=O)[C@@H]1CCC(=O)N1)C(=O)N[C@H](C(N)=O)[C@@H](C)O` [Analog III, [Glp^5,D-Trp^7,D-Trp^9,Thr^11]--SP5-11] ([pGlu]Q[dW]F[dW]LT-NH2): the “Fold increase in conc. of SP in the presence of the analog to give 50% of the maximal response elicited by SP alone” value in data set [2] is recorded as 2 fold.

These data come from patent US4481139A, “Peptide antagonists of substance P” (Board of Regents, The University of Texas System, priority 1983, dated 1984).
